What was measured:
PSN-1 spheroids = test: 3D spheroid APH assay, PSN-1; type: cell-based, human; settings: PSN-1 spheroids, 72 h, APH test
Description: (§1) Acid phosphatase (APH) assay. A modified APH assay, which is based on quantification of cytosolic acid phosphatase activity, was used for determining cell viability in spheroids. […] Triplicate cultures were established for each treatment. […] Evaluation was based on means from at least four independent experiments.
(§2) In order to improve the predictive capacity of the in vitro assays, we tested the activity in three three-dimensional (3D) cell cultures; human colon cancer cells, HCT-15, and human pancreatic cancer cells, KRAS wild type BxPC3 cells KRAS mutated PSN-1 cells. The cancer spheroids were treated with 3a and 3b for 72 h and the cell viability was assessed by means of the APH assay (Table 6). For comparison purposes, the cytotoxicities of CDDP and OXP were evaluated under the same experimental conditions.

[1] = system: Histone deacetylase (HDAC); test: Histone deacetylase assay in PSN-1 cells; type: cell-based, human; settings: 24 h, IC50 concentrations
Protocol: (§3) Histone deacetylase assay. Histone deacetylase activity was determined using Fluor-de-Lys® HDAC fluorometric activity assay kit (Enzo Life Sciences International, Inc., Plymount Meeting, Pa., U.S.A.). 2008 and PSN1 cells (5.10^4 seeded in 96-well microplates) were treated for 24 h with tested complexes, and then processed as reported by the manufacturer's instructions. Fluorescence was measured using a Fluoroskan Ascent FL (Labsystem, Finland) plate reader, with excitation at 360 nm and emission at 460 nm.
(§4) Thus, we measured both the levels of DNA platination and the ability of these pro-drugs to inhibit HDAC activity in cancer cells.

HCT-15 spheroids = test: 3D spheroid APH assay, HCT-15; type: cell-based, human; settings: HCT-15 spheroids, 72 h, APH test
Description: as §1, §2

H157 cells = test: MTT cytotoxicity assay, H157; type: cell-based, human; settings: H157, 72 h
Protocol: (§5) MTT assay. […] Triplicate cultures were established for each treatment.
(§6) The two dimers, 3a and 3b, as well as compounds 1a and 2a were screened against six human cancer cell lines representative of lung (H157), colon (HCT-15), cervical (A431), ovarian (2008) and pancreatic (PSN1) cancers, along with melanoma (A375). Cytotoxicity was evaluated by means of the MTT test after 72 h of treatment and the in vitro antitumor potential of newly synthesized derivatives was compared to that of the reference metallo-drugs CDDP and OXP.

HCT-15 cells = test: MTT cytotoxicity assay, HCT-15; type: cell-based, human; settings: HCT-15, 72 h, MTT (Table 5); read-out: IC50 (μM) ± S.D.
Protocol: (§7) Cisplatin (CDDP) and oxaliplatin (OXP) were dissolved just before the experiment in a 0.9% NaCl solution. […]
(§8) Cancer Res. 1988, 48, 589-601]. […] Triplicate cultures were established for each treatment.
as §5, §6

A431 cells = test: MTT cytotoxicity assay, A431; type: cell-based, human; settings: A431, 72 h
Protocol: as §5, §6

[2] = system: human embryonic kidney HEK293 cells; test: MTT cytotoxicity against non-tumor cells; type: cell-based
Protocol: as §5
The cytotoxic activity of derivatives 3a and 3b was also evaluated against non-tumor cells, namely human embryonic kidney HEK293 cells (Table 7). Both compounds 3a and 3b were more cytotoxic than CDDP.

[3] = system: Histone deacetylase (HDAC); test: Histone deacetylase assay in 2008 cells; type: cell-based, human; settings: 24 h, IC50 concentrations
Protocol: as §3, §4

PSN1 cells = test: MTT cytotoxicity assay, PSN1; type: cell-based, human; settings: PSN1, 72 h, MTT
Protocol: as §5, §6

PSN-1 cells = test: Glycolysis (Mito-ID O2 sensor), PSN-1; type: cell-based, human; settings: IC50 concentrations, 24 h
Protocol: (§9) Glycolysis. The cellular glycolytic activity was assessed using the Mito-ID® O2 Extracellular Sensor Kit according to the manufacturer's instructions (Enzo Life Sciences, Farmingdale, N.Y.). Briefly, PSN-1 cells (15·10^3 per well) were seeded in 96-well plates. After 24 h, cells were treated with Mito-ID® O2 Sensor Probe Solution containing the tested compounds at the appropriate concentration. Fluorescence was estimated using a plate reader (Fluoroskan Ascent FL, Labsystem, Finland) at 350 nm (excitation) and 610 nm (emission).
(§10) Based on the above findings, we investigated the effects determined by derivatives 3a and 3b on 2008 and PSN-1 cancer cell aerobic glycolysis and mitochondria function.
(§11) However, these effects were magnified in PSN-1 cells, having reduction of cellular glycolytic activity of about 36 and 20% for 3a and 3b, respectively. […] This latter result could be explained tacking into consideration that the reference compound [Pt(DACH)(56Phen)] itself, that is also released upon reduction of 3a and 3b, is effective in hampering cellular glycolysis in both tested cancer cell lines. The difference between 3a and 3b might be attributed to the added effect of DCA.

2008 cells [4] = test: Glycolysis (Mito-ID O2 sensor), 2008; type: cell-based, human; settings: IC50 concentrations, 24 h
Protocol: as §9, §10, §11

A375 cells = test: MTT cytotoxicity assay, A375; type: cell-based, human; settings: A375, 72 h, MTT (Table 5); read-out: IC50 (μM) ± S.D.
Protocol: as §7, §8, §5, §6

2008 cells [5] = test: MTT cytotoxicity assay, 2008; type: cell-based, human; settings: 2008, 72 h, MTT
Protocol: as §5, §6

BxPC3 spheroids = test: 3D spheroid APH assay, BxPC3; type: cell-based, human; settings: 72 h, APH test
Description: as §1, §2

## c,c,t,t,c,c-[(DACH)(56Phen)(OAc)Pt(μ-OOC—(CH2)2—CONH(CH2)3COO)-Pt(OAc)(NH3)2(Cl2)](TFA)2 [Compound 3b]
PSN-1 spheroids
  IC50: 60.5 ± 5.76 µM
[1]
  HDAC activity hampered: not effective in modifying HDAC activity
HCT-15 spheroids
  IC50: 75.9 ± 4.52 µM
H157 cells
  IC50: 8.25 ± 1.21 µM
HCT-15 cells
  IC50: 1.89 ± 0.69 µM
A431 cells
  IC50: 5.25 ± 0.41 µM
[2]; HEK293 non-tumor cells, 72 h, MTT
  IC50: 7.8 ± 3.36 µM
[2]; ratio between average IC50 of non-tumor cells and IC50 of malignant cells
  SI (selectivity index): 1.7
[3]
  HDAC activity hampered: not effective in modifying HDAC activity
PSN1 cells
  IC50: 6.12 µM
PSN-1 cells
  reduction of cellular glycolytic activity: ~20%
2008 cells [4]
  reduction of glycolysis processes compared with untreated control cells: ~14%
A375 cells
  IC50: 1.05 ± 0.18 µM
2008 cells [5]
  IC50: 6.04 µM
BxPC3 spheroids
  IC50: 81.3 ± 6.25 µM

From US20190290656A1, “PT(IV) PRODRUGS” (YISSUM RESEARCH DEVELOPMENT COMPANY OF THE HEBREW …, priority 2015, published 2019)
